Holding throughout (experiment): HPTLC autoradiography of metabolites, insect-cell microsomes
What all share (type): biochemical
Conditions in all cases: NADPH, pH 7.5, 25 C, co-expressed reductase and b5; labelled compound; product 4'-HO-permethrin

The target in one experiment is T1, CYP9M6v1 (Aedes aegypti, UniProt X5I1U9).
T1 construct: full-length cDNA from SP strain (533 residues), baculovirus/Sf9 (expressSF+) microsomes, co-expressed with A. aegypti P450 reductase and cytochrome b5; with NADPH--cytochrome P450 reductase; Cytochrome b5
T1 sequence (X5I1U9 1-533): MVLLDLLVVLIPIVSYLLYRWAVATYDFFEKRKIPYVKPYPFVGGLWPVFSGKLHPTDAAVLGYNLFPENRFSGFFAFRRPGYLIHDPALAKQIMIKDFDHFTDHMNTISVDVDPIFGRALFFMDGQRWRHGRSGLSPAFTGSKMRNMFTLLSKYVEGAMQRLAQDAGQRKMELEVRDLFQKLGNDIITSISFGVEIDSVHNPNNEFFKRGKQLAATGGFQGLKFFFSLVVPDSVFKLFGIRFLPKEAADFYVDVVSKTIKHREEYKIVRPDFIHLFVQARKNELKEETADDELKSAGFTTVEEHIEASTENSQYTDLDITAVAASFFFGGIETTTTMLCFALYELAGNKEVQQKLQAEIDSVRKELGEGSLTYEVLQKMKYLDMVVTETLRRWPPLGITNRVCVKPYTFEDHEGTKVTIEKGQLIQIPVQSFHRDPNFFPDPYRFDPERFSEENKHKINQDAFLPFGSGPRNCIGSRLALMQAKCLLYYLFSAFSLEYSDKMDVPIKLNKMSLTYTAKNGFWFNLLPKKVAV

The target in the next experiment is T2, CYP9M6v2 (Aedes aegypti, UniProt X5HYQ8).
T2 construct: full-length cDNA from SP strain (533 residues), baculovirus/Sf9 (expressSF+) microsomes, co-expressed with A. aegypti P450 reductase and cytochrome b5; with NADPH--cytochrome P450 reductase; Cytochrome b5
T2 sequence (X5HYQ8 1-533): T1 sequence (X5I1U9 1-533) with R170G, V176I, G348E, G370D, V376M, L527V, K530R

The target of a further experiment is T3, CYP6BB2 (Aedes aegypti, UniProt Q16F58).
T3 construct: gene 5565578; full-length cDNA from SP strain, baculovirus/Sf9 (expressSF+) microsomes, co-expressed with A. aegypti P450 reductase and cytochrome b5; with NADPH--cytochrome P450 reductase; Cytochrome b5
T3 sequence (Q16F58 1-507): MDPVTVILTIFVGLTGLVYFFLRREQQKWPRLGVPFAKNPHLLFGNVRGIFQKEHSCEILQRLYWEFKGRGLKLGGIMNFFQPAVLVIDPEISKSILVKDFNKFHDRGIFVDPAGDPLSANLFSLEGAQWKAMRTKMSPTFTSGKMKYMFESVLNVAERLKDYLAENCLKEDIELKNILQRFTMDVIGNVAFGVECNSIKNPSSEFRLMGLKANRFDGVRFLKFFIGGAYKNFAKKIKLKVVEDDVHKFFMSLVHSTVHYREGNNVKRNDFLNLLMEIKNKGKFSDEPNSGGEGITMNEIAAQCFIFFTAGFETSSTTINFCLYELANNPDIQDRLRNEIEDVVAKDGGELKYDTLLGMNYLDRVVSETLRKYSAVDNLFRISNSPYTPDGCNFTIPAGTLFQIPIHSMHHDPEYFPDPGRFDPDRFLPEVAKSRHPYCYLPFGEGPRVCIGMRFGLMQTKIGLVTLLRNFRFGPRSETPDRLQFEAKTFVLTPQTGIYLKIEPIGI

Results on 1 compound are retold here after paper PMC4063723, “Mechanisms of Pyrethroid Resistance in the Dengue Mosquito Vector, Aedes aegypti: Target Site Insensitivity, Penetration, and Metabolism” (PLoS Neglected Tropical Diseases, 2014).

Molecules are shown by their SMILES. Substitutions are numbered along the chain they refer to.

Regarding `CC1(C)C(C=C(Cl)Cl)C1C(=O)OCc1cccc(Oc2ccccc2)c1` (stereo not drawn) [[14C]-(1RS)-trans-permethrin], the “HPTLC autoradiography of metabolites, insect-cell microsomes” value at CYP9M6v1 is “Both CYP9M6v1 and CYP9M6v2 demonstrated relatively low but consistent permethrin metabolism”; at CYP9M6v2 it was “Both CYP9M6v1 and CYP9M6v2 demonstrated relatively low but consistent permethrin metabolism”; on CYP6BB2 it was “CYP6BB2 exhibited strong metabolic activity for permethrin”.
